Laboratory results published in patent EP1444982A1, “The use of purine derivatives as selective kinase inhibitors” (MERCKLE GMBH, priority 2003, dated 2004).

What was measured:
Type in all cases: biochemical
[1] = target: GSK3β (h) (Homo sapiens, UniProt P49841); assay: Kinase inhibition assay (33P-ATP, P30 filter, scintillation counting): GSK3β; settings: 30µM Testsubstanz (100 µM ATP); read-out: Hemmung von Kinasen in % GSK3β (h)
Method: (§1) Alle Kinasen werden auf zehnfache Arbeitskonzentration vor Anwendung in dem Essay verdünnt. Die Zusammensetzung des Verdünnungspuffers ist für jede Kinase in der nachfolgenden Tabelle angegeben.
(§2) Alle Substrate werden gelöst und auf eine Stammlösung in entsalztem Wasser verdünnt.
GSK3β (h)(5-10mU) in einem Endreaktionsvolumen von 25 µl wird mit 8 mM MOPS pH 7.0, 0.2 mM EDTA, 20 µM […](p) EDEEE (phospho GS2 Peptid), 10 mM MgAcetat und [γ-^33P-ATP] inkubiert (spezifische Aktivität etwa 500 cpm/pmol, Konzentration wie erforderlich). Die Reaktion wird durch Zugabe von Mg^2+[γ-^33P-ATP] initiiert. Nach 40-minütiger Inkubation bei Raumtemperatur wird die Reaktion durch Zugabe von 5 µl einer 3 %igen Phosphorsäurelösung gestoppt. 10 µl der Reaktion werden dann auf ein P30-Filter gegeben und dreimal jeweils 5 Minuten in 50 mM Phosphorsäure und einmal in Methanol gewaschen. Anschließend wird getrocknet und eine Szintillationszählung durchgeführt.

[2] = target: SAPK2a (h) (Homo sapiens, UniProt Q16539); assay: Kinase inhibition assay (33P-ATP, P30 filter, scintillation counting): SAPK2a; settings: 30µM Testsubstanz (100 µM ATP); read-out: Hemmung von Kinasen in % SAPK2a (h)
Chain of SAPK2a (h) (Q16539 whole entry): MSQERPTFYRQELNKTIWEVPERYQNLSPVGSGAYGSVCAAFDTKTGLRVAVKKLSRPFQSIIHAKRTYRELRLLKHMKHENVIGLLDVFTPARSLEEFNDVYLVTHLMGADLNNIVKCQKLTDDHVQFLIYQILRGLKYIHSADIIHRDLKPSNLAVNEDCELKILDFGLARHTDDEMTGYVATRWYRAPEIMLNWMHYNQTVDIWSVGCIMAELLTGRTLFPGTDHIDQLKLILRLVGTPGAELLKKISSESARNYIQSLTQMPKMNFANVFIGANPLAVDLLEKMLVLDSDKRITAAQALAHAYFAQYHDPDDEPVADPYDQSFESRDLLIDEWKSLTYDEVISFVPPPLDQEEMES
Method: as §1, §2
SAPK2a (h) wird in einem Endreaktionsvolumen von 25 µl mit 25 mM Tris pH 7,5, 0.02 mM EGTA, 0.33 mg/ml Myelin-Basisprotein, 10 mM MgAcetat und [γ-^33P-ATP] inkubiert (spezifische Aktivität etwa 50 cpm/pmol, Konzentration wie erforderlich). Die Reaktion wird durch Zugabe von Mg^2+[γ-^33P-ATP] initiiert. Nach 40-minütiger Inkubation bei Raumtemperatur wird die Reaktion durch Zugabe von 5 µl einer 3 %igen Phosphorsäurelösung gestoppt. 10 µl der Reaktion werden dann auf ein P30-Filter gegeben und dreimal jeweils 5 Minuten in 50 mM Phosphorsäure und einmal in Methanol gewaschen. Anschließend wird getrocknet und eine Szintillationszählung durchgeführt.

[3] = tested on: PKA (h); assay: Kinase inhibition assay (33P-ATP, P30 filter, scintillation counting): PKA; settings: 30µM Testsubstanz (100 µM ATP); 40 min
[4] = target: c-RAF (h) (Homo sapiens, UniProt P04049); assay: Kinase inhibition assay (33P-ATP, P30 filter, scintillation counting): c-RAF; settings: 40 min; 30µM Testsubstanz (100 µM ATP); read-out: Hemmung von Kinasen in % c-RAF (h)
Chain of c-RAF (h) (P04049 whole entry): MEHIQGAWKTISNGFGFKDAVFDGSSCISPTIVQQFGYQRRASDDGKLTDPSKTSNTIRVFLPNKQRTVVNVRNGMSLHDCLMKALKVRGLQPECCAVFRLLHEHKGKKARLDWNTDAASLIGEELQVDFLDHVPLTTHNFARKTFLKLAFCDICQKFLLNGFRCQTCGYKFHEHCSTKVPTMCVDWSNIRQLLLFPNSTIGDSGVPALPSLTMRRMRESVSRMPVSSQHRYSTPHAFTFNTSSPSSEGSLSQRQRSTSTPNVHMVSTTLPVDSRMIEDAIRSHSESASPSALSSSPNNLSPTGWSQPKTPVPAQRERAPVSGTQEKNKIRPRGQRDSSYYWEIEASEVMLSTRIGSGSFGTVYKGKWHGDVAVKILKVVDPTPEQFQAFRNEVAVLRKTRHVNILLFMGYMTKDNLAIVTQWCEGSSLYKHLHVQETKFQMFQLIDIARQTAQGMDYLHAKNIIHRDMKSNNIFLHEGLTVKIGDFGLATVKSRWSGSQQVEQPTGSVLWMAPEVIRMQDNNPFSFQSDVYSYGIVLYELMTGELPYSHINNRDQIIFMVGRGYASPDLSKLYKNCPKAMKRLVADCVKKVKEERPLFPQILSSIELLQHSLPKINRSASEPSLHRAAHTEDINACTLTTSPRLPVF
Method: as §1, §2
(§3) c-RAF (ha)(5-10 mU) in einem Endreaktionsvolumen von 25 µl wird mit 25 mM Tris pH 7.5,.0.02 mM EGTA, 0.66 mg/ml Myelin-Basisprotein, 10 mM MgAcetat und [γ-^33P-ATP] inkubiert (spezifische Aktivität etwa 50 cpm/pmol, Konzentration wie erforderlich). Die Reaktion wird durch Zugabe von Mg^2+[γ-^33P-ATP] initiiert. Nach 40-minütiger Inkubation bei Raumtemperatur wird die Reaktion durch Zugabe von 5 µl einer 3 %igen Phosphorsäurelösung gestoppt. 10 µl der Reaktion werden dann auf ein P30-Filter gegeben und dreimal jeweils 5 Minuten in 50 mM Phosphorsäure und einmal in Methanol gewaschen. Anschließend wird getrocknet und eine Szintillationszählung durchgeführt.

[5] = target: MEK1 (h) (Homo sapiens, UniProt Q02750); assay: Kinase inhibition assay: MEK1 (coupled to MAPK2 assay); settings: 30µM Testsubstanz (100 µM ATP); read-out: Hemmung von Kinasen in % MEK1 (h)
Chain of MEK1 (h) (Q02750 whole entry): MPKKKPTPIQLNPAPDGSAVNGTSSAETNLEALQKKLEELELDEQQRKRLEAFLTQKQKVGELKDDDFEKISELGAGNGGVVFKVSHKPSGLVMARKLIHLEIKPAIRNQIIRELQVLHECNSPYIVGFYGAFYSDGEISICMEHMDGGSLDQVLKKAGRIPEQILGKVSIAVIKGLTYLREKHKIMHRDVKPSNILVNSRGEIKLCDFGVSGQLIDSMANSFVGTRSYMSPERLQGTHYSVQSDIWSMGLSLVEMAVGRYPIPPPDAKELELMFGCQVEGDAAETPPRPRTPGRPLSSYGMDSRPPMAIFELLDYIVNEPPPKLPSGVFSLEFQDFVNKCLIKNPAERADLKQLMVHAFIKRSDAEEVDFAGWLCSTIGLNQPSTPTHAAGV
Method: as §1, §2
MEK1 (h)(1-5 mU) in einem Endreaktionsvolumen von 25 µl wird mit 50 mM Tris pH 7.5, 0.2 mM EGTA, 0.1 % b-Mercaptoethanol, 0,01 % Brij-35, 1 µM inaktives MAPK2 (m), 10 mM MgAcetat und kaltem ATP inkubiert (Konzentration wie erforderlich). Die Reaktion wird durch Zugabe von MgATB initiiert. Nach 40-minütiger Inkubation bei Raumtemperatur werden […] dieses Inkubationsgemisches dazu verwendet, den oben beschriebenen MAPK2-Assay zu initiieren.

[6] = target: Lck (h) (Homo sapiens, UniProt P06239); assay: Kinase inhibition assay (33P-ATP, P30 filter, scintillation counting): Lck; settings: 30µM Testsubstanz (100 µM ATP); read-out: Hemmung von Kinasen in % Lck (h)
Chain of Lck (h) (P06239 whole entry): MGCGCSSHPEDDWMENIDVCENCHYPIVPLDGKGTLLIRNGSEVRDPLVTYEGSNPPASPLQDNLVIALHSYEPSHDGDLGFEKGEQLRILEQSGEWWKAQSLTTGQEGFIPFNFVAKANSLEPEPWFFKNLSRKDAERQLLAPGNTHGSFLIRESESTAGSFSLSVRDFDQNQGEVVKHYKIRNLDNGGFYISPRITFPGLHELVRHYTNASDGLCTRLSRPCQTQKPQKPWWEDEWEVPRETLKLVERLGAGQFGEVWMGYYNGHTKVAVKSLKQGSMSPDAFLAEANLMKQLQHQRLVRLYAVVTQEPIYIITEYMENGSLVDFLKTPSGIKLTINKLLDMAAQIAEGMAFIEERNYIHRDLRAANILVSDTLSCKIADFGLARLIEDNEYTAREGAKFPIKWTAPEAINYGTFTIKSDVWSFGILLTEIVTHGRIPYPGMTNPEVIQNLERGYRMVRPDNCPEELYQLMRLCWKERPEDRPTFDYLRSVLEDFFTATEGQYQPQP
Method: as §1, §2
as §3, with “Lck (h)(5-10 mU)” for “c-RAF (ha)(5-10 mU)”, “mit 50” for “mit 25”, “pH 7.5, 0.1” for “pH 7.5,.0.02”, “EGTA, 0.1 mM NaVanadate, 250 µM KVEKIGEGTYGVVYK (Cdc2 Peptid),” for “EGTA, 0.66 mg/ml Myelin-Basisprotein,”, “etwa 500” for “etwa 50”

[7] = target: MAPK2 (h) (Homo sapiens, UniProt P28482); assay: Kinase inhibition assay: MAPK2; settings: 30µM Testsubstanz (100 µM ATP); read-out: Hemmung von Kinasen in % MAPK2 (h)
Chain of MAPK2 (h) (P28482 whole entry): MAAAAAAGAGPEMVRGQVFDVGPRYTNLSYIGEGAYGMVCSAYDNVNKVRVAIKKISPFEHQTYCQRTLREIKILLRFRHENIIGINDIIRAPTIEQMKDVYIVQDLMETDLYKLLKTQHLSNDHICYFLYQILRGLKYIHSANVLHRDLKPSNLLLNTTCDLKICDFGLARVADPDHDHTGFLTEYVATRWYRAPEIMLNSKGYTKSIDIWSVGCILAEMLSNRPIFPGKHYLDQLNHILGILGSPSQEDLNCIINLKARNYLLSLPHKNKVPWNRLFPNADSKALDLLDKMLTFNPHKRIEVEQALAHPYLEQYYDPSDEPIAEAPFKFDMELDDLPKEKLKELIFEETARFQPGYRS
From the text: as §1, §2

[8] = tested on: ROCKII (h); assay: Kinase inhibition assay (33P-ATP, P30 filter, scintillation counting): ROCK-II; settings: 30µM Testsubstanz (100 µM ATP); 40 min
[9] = target: JNK3 (r) (Rattus norvegicus, UniProt P49187); assay: Kinase inhibition assay: JNK3; settings: 30µM Testsubstanz (100 µM ATP); read-out: Hemmung von Kinasen in % JNK3 (r)
Chain of JNK3 (r) (P49187 whole entry): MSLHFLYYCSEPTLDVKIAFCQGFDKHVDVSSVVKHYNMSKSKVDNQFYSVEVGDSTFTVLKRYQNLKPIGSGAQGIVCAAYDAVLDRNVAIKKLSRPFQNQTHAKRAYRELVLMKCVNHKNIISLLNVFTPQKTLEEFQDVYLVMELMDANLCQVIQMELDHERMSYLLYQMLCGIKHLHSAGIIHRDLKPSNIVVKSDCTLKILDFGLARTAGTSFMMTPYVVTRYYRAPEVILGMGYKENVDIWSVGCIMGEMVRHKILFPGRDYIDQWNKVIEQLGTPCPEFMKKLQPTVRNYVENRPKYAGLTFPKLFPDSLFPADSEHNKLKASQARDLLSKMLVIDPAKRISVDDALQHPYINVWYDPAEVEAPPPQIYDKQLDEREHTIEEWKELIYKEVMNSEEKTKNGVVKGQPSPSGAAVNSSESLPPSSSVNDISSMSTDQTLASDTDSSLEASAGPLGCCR
From the text: as §1, §2

[10] = target: PKB (h) (Homo sapiens, UniProt P31749); assay: Kinase inhibition assay (33P-ATP, P30 filter, scintillation counting): PKB; settings: 40 min; 30µM Testsubstanz (100 µM ATP); read-out: Hemmung von Kinasen in % PKB (h)
Chain of PKB (h) (P31749 whole entry): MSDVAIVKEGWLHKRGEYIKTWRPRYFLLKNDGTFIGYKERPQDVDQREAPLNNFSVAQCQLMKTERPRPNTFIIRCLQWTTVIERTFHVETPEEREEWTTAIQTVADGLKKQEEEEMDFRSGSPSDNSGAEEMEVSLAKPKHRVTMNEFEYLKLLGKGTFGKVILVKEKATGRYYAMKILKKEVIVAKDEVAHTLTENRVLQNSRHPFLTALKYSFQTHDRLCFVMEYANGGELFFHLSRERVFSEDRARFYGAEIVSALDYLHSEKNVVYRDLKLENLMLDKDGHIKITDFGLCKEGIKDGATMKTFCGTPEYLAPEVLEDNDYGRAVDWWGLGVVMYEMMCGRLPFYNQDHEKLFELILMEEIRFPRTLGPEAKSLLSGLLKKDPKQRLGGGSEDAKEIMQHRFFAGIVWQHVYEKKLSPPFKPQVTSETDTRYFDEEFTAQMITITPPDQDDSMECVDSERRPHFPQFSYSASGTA
Method: as §1, §2
PKBα (h)(5-10mU) wird in einem Endreaktionsvolumen von 25 µl mit 8 mM MOPS pH 7.0, 0.2 mM EDTRA, 30 µM GRPRTSSFAEGKK, 10 mM MgAcetat und [γ-^33P-ATP] inkubiert (spezifische Aktivität etwa 50 cpm/pmol, Konzentration wie erforderlich). Die Reaktion wird durch Zugabe von Mg^2+[γ-^33P-ATP] initiiert. Nach 40-minütiger Inkubation bei Raumtemperatur wird die Reaktion durch Zugabe von 5 µl einer 3 %igen Phosphorsäurelösung gestoppt. 10 µl der Reaktion werden dann auf ein P30-Filter gegeben und dreimal jeweils 5 Minuten in 50 mM Phosphorsäure und einmal in Methanol gewaschen. Anschließend wird getrocknet und eine Szintillationszählung durchgeführt.

[11] = target: MAPK1 (h) (Homo sapiens, UniProt P27361); assay: Kinase inhibition assay: MAPK1; settings: 30µM Testsubstanz (100 µM ATP); read-out: Hemmung von Kinasen in % MAPK1 (h)
Chain of MAPK1 (h) (P27361 whole entry): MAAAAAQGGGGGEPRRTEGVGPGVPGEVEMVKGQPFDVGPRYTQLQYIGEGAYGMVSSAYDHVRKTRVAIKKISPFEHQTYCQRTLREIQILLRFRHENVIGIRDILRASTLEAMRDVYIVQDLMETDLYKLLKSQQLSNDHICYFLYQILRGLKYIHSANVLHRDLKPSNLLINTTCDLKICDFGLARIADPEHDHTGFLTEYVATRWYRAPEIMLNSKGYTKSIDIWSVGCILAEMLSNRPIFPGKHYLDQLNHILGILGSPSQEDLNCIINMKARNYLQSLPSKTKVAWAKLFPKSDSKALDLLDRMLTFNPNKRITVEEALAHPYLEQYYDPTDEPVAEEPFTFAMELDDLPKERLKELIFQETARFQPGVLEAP
From the text: as §1, §2

Chain of GSK3β (h) (P49841 whole entry): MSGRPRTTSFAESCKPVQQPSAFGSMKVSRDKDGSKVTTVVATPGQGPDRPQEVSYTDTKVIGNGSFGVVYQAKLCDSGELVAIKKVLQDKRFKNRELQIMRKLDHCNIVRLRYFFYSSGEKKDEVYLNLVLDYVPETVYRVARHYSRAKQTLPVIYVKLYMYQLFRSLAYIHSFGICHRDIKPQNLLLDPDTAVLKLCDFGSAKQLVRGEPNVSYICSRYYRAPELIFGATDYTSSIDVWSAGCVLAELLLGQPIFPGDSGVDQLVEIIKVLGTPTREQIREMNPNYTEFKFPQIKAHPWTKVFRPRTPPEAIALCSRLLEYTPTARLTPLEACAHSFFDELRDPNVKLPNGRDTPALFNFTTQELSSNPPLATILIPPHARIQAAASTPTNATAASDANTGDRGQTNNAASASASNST

Row | SMILES | inhibition at 30 µM [1] | inhibition at 30 µM [2] | Hemmung von Kinasen in % PKA (h) [3] | inhibition at 30 µM [4] | inhibition at 30 µM [5] | inhibition at 30 µM [6] | inhibition at 30 µM [7] | Hemmung von Kinasen in % ROCKII (h) [8] | inhibition at 30 µM [9] | inhibition at 30 µM [10] | inhibition at 30 µM [11]
1 | c1ccc(Nc2ncnc3[nH]cnc23)cc1 [Verbd. 1, Phenyl-(9H-purin-6-yl)-amin] | 13% | 34% | 32% | 19% | 19% | 39% | 33% | 48% | 11% | 14% | 22%
2 | Fc1ccc(Nc2ncnc3[nH]cnc23)cc1 [Verbd. 2, (4-Fluoro-phenyl)-(9H-purin-6-yl)-amin] | 13% | 30% | 40% | 24% | 34% | 42% | 48% | 52% | 10% | 18% | 33%
3 | c1ccc(CSc2ncnc3[nH]cnc23)cc1 [Verbd. 9, 6-Benzylsulfanyl-9H-purin] | 35% | 50% | 13% | 53% | 7% | 22% | 12% | 28% | 7% | 4% | 15%
4 | Fc1ccc(CSc2ncnc3[nH]cnc23)cc1 [Verbd. 10, 6-(4-Fluoro-benzylsulfanyl)-9H-purin] | 0% | 29% | – | 47% | 0% | 16% | 5% | 18% | 12% | 6% | 9%
5 | Cn1cnc2c(Nc3ccccc3)ncnc21 [Verbd. 13, (9-Methyl-9H-purin-6-yl)-phenyl-amin] | 26% | 0% | 0% | 44% | 4% | 18% | 42% | 0% | 5% | 0% | 16%
6 | Cn1cnc2c(Nc3ccc(F)cc3)ncnc21 [Verbd. 14, (4-Fluoro-phenyl)-(9-methyl-9H-purin-6-yl)-amin] | 14% | 13% | 0% | 27% | 8% | 9% | 57% | 7% | 19% | 0% | 36%
7 | c1ccc(Sc2ncnc3[nH]cnc23)cc1 [Verbd. 15, 6-Phenylsulfanyl-9H-purin] | 1% | 54% | 8% | 6% | 0% | 5% | 13% | 33% | 0% | 0% | 3%
8 | Fc1ccc(Sc2ncnc3[nH]cnc23)cc1 [Verbd. 16, 6-(4-Fluoro-phenylsulfanyl)-9H-purin] | 0% | 72% | 10% | 29% | 2% | 13% | 12% | 37% | 8% | 0% | 2%
9 | Cn1cnc2c(Sc3ccc(F)cc3)ncnc21 [Verbd. 18, 6-(4-Fluoro-phenylsulfanyl)-9-methyl-9H-purin] | 0% | 38% | 1% | 12% | 6% | 2% | 12% | 6% | 9% | 0% | 9%
10 | Cn1c(-c2ccccc2)nc2c(Sc3ccccc3)ncnc21 [Verbd. 23, 9-Methyl-8-phenyl-6-phenylsulfanyl-9H-purin] | 0% | 44% | 3% | 12% | 4% | 5% | 0% | 1% | 12% | 42% | 10%
11 | Cn1c(-c2ccccc2)nc2c(Sc3ccc(F)cc3)ncnc21 [Verbd. 24, 6-(4-Fluoro-phenylsulfanyl)-9-methyl-8-phenyl-9H-purin] | 22% | 29% | 3% | 14% | 7% | 20% | 1% | 9% | 16% | 29% | 11%
12 | Cn1c(-c2ccccc2)nc2c(-c3ccc(F)cc3)ncnc21 [Verbd. 41, 6-(4-Fluoro-phenyl)-9-methyl-8-phenyl-9H-purin] | 26% | 23% | 0% | 24% | 5% | 17% | 1% | 0% | 12% | 31% | 20%
